Reference: US20100183669A1, “Mannose immunogens for HIV-1” (University of Oxford, priority 2005, published 2010)

Assays:
monoclonal antibody 2G12 = test: 2G12 sandwich ELISA of gp120 from CHO cells grown with or without kifunensine; type: binding; conditions: for binding to the monoclonal antibody 2G12 in ELISA: gp120 produced in CHO cells in the presence of kifunensine, compared with absence
Procedure: To investigate the role of mannosidase inhibition, by kifunensine, on the formation of the 2G12 epitope, Chinese Hamster Ovary (CHO) cells, transfected with EE6HCMV gp120GS, secreting recombinant HIV-IIIB gp120, were cultured in CB2 DMEM Base culture medium supplemented with foetal calf serum (10%), penicillin (50 U/ml) and streptomycin (50 ^1g/ml). All reagents were obtained from Gibco Ltd, Uxbridge, UK. High expression of gp120 was maintained by the addition of methionine sulphoximine (200 nM). Cells were grown in the presence and absence kifunensine (see FIG. 1A, 1B).
Glycoproteins were immobilized on plastic protein-binding plates. For the first experiment (FIG. 1A) 2G12 (5 ug/ml) was coated onto plate, left overnight at 4° C. Plates were then blocked with Bovine Serum albumin (3% w/v) for one hour. Subsequently, supernatant from gp120IIIB expressing CHO cells (with or without kifunensine) was added for one hour, at room temperature. Plates were then washed 3 times in PBS. 2G12 (titration from 10 yg/ml) was then added. After washing 2g12 binding was determined by phosphatase-conjugated anti-IgG secondary antibody, a final wash step and then phosphatase substrate measurement (p-nitrophenylphosphate, absorbance at 405 nm).
(§1) BSA (x) was used in these experiments as a negative control.

2G12 [1] = test: Double antibody (b12/2G12) ELISA of gp120 captured with anti-gp120 antibody D7324; type: binding; conditions: gp120 produced with 5 μM kifunensine compared with double antibody ELISA of untreated gp120, FIG. 1 panel B
Description: Binding of gp120, and measurement of b12/2G12 was again determined by phosphatase-conjugated anti-IgG secondary antibody.
as §1

2G12 [2] = test: 2G12 binding ELISA of self glycoproteins CD48 and RPTPmu expressed in HEK293T cells with kifunensine; conditions: glycoproteins expressed in HEK293T cells with 5 μM kifunensine, FIG. 4
Procedure: The aim of this study is to generate ‘self’ glycoproteins bearing oligomannose glycans which bind a 2G12 antibody and consequently display antigenic cross-reactivity with the HIV gp120. Two target glycoproteins, CD48 and Receptor Protein Tyrosine Phosphates mu (RPTPmu) were expressed in HEK293T cells in the presence of the mannosidase inhibitor kifunensine at 5 μM concentration. To verify that the mannosidase inhibitor was effective in producing glycoprotein containing oligomannose glycans, the glycans were released by digestion with protein N-glycanase F (PNGase F) and were then analysed by high-performance liquid chromatography (HPLC) and matrix assisted laser desorption/ionisation mass spectrometry (MALDI-MS).
The resulting glycoproteins containing oligomannose-type N-linked glycans were tested for 2G12 binding by ELISA (FIG. 4). Particularly, 15.6 μg of CD48, 2 μg, 1 μg and 0.4 μg of RPTPmu were plated and 1 μg of non-kifunensine treated IgG was plated as a negative control.

[3] = tested on: ER- and Golgi-resident class I α-mannosidases; conditions: relative to DMJ; cited from earlier work

## kifunensine treated gp120: HIV-1IIIB gp120 glycoprotein produced in a CHO stable cell line in the presence of kifunensine
Monoclonal antibody 2G12; gp120 expressed in the presence of kifunensine
  number of 2G12 molecules able to bind to a single gp120 molecule: at least two
Monoclonal antibody 2G12; expressed in the presence of kifunensine
  binding to the monoclonal antibody 2G12 in ELISA: dramatically enhanced
Monoclonal antibody 2G12; produced in the presence of kifunensine
  binding to the monoclonal antibody 2G12 in ELISA: higher binding
Monoclonal antibody 2G12; gp120 produced in the presence of kifunensine, two 2G12 ELISA binding assays
  additional 2G12 binding sites on each molecule of gp120: at least one additional 2G12 binding site
Monoclonal antibody 2G12; sandwich ELISA, 0-5 μM kifunensine, FIG. 1 panel A
  proportion of gp120 molecules able to simultaneously bind two or more 2G12 antibody molecules: a higher proportion
2G12 [1]
  distinct epitopes for 2G12: two distinct epitopes

## CD48: self glycoprotein expressed in HEK293T cells in the presence of 5 μM kifunensine, bearing oligomannose glycans
2G12 [2]
  2G12 binding by ELISA: can bind to 2G12

## RPTPmu: self glycoprotein expressed in HEK293T cells in the presence of 5 μM kifunensine, bearing oligomannose glycans
2G12 [2]
  2G12 binding by ELISA: can bind to 2G12

## O=C1N[C@@H]2[C@@H](O)[C@@H](O)[C@H](O)[C@@H](CO)N2C1=O [kifunensine]
[3]
  concentration to effect mannosidase inhibition, lower than DMJ: 1000 fold
